Marks after values point to notes of the source that are not given here.
How the values were obtained:
[1] = Plasma Vitamin E in exercising sled dogs
Method: (§1) Three groups of twelve dogs (mixed breed Alaskan sled dogs (husky pointer crosses)) were fed commercially available Pro Plan® Performance chicken and rice formula dog food as a basal diet, and each group was fed either: a placebo consisting of about 0.5 g maltodextrin, about 2 mg astaxanthin, or about 400 mg Vitamin E (alpha-tocopherol). Pro Plan® dog food is available from Nestlé Purina Pet Care Company in St. Louis, Mo. The dogs were trained three times a week on an exercise wheel for a period of six weeks. On the sixth week, the dogs rested for four days and then exercised three days in a row. Blood samples were collected before exercise on day one, immediately after exercise on day three, and at 24 hours and 48 hours after exercise. Plasma from the blood samples was analyzed for concentrations of malondialdehyde, F-2 isoprostanes, Vitamin E, creatine kinase activity as well as oxygen radical absorption capacity (ORAC).
(§2) All the dogs were maintained on the same basal diet (Purina Pro Plan® Performance chicken and rice formula) for one month prior to the onset and the entire duration of the experiment. Each dog was fed as an individual to maintain an optimal body condition score of 4/10.
(§3) Thirty-six sled dogs were housed at the Nestle Purina facility in Salcha, Ak. The dogs were divided into three groups of 12 dogs so that each group was alike in age, sex and ability distribution. A treatment was randomly assigned to each group by drawing from a hat. Group “A” was assigned about 400 mg Vitamin E/day, group “B” was assigned about 2 mg Astaxanthin/day and group “C” was assigned about 500 mg maltodextrin as a placebo. The people responsible for feeding, care, and training of the dogs were blind as to the identity of treatments until the completion of the study. Dogs were treated for six weeks before the onset of testing. They were also trained lightly for two sessions per week during this time period. Training sessions consisted of walking at 14 kilometers per hour for 2 hours in a 40-foot diameter circle tethered to a dog-walking wheel.
(§4) The testing took place over a six day period. On day one, pre-exercise blood samples were drawn from all the dogs. On day two, the dogs ran twelve km while pulling an all terrain vehicle (ATV) weighing 500 pounds. On day three, the dogs walked 16 miles on the dog wheel. On day four, the dogs again pulled the ATV for a distance of 12 kilometers. Immediately after exercise on day four, blood samples were drawn. Additional blood samples were drawn again at 24 hours and 48 hours after exercise. This sampling schedule was designed to examine changes in the parameters measured during exercise and during recovery. Samples were obtained by jugular venipuncture and collected into evacuated glass tubes containing sodium EDTA as an anticoagulant. Once collected they were kept on ice for not more than 10 minutes before they were centrifuged at 10,000 revolutions per minute (RPM) in 4° C. for a period of 10 minutes. The plasma was transferred into freezer vials where the dead space was replaced with gaseous nitrogen to decrease further oxidation during storage. The vials were then capped and immediately quenched in liquid nitrogen. The vials were recovered from liquid nitrogen and stored at −70° C. until analyzed. Each plasma sample was analyzed for malondialdehyde concentration using a standard HPLC, F2-isoprostane concentration utilizing a mass spectrometer and standard ELISA, Vitamin E concentration utilizing a standard HPLC, and Oxidative Radical Absorbance Capacity (ORAC test kit, Oxford Co.
(§5) F2 isoprostane and CK data was evaluated using a two way ANOVA for repeated measures. Post hoc comparisons were made using a student's t test corrected for repeated measures by the Bonneferroni method. Statistical significance was set at p<0.05. The other data was also evaluated using ANOVA. The abbreviation “se” used with respect to the data in the tables below refers to standard error.

malondialdehyde = experiment: Plasma malondialdehyde (MDA) in exercising sled dogs; assay type: in vivo, dog
Method: as §1, §2, §3, §4, §5

F2-isoprostane = experiment: Plasma F2-isoprostane (F2I) in exercising sled dogs; assay type: in vivo, dog; conditions: for Plasma F2I compared to the placebo group: in words
Method: as §1, §2, §3, §4, §5

total ORAC = experiment: Plasma total Oxidative Radical Absorptive Capacity (ORAC) in exercising sled dogs; assay type: in vivo, dog; conditions: for ORAC improvement by supplementation: any of the time periods measured, in words
Method: as §1, §2, §3, §4, §5

Creatine Kinase = experiment: Plasma creatine kinase (CK) in exercising sled dogs; assay type: in vivo, dog
Method: as §1, §2, §3
as §4, with “The plasma was transferred into freezer vials where the dead space was replaced with gaseous nitrogen to decrease further oxidation during storage. The vials were then capped and immediately quenched in liquid nitrogen.” left out
F2 isoprostane and CK data was evaluated using a two way ANOVA for repeated measures. […] The other data was also evaluated using ANOVA. […]

[2] = system: canine lens epithelial cells; experiment: UV-stressed canine lens epithelial cells supplemented with astaxanthin; assay type: cell-based
Excerpt: An in vitro experiment may be performed using canine lens epithelial cells supplemented with astaxanthin at physiological levels.

cataract formation = experiment: In vivo cataract formation study, slit-lamp test; parameters: species or system dog; conditions: dogs, e.g. two year study; astaxanthin optionally with Vitamin E, lutein, zeaxanthin, zinc
Excerpt: In a model study, 40 dogs could be chosen and randomly allocated to either the control group or to a treatment group receiving AAFCO recommended levels of antioxidants. The treatment group would receive astaxanthin and may also receive one or more of Vitamin E, lutein, zeaxanthin and zinc.

[3] = system: peripheral blood mononuclear cells (PBMCs); experiment: In vitro lymphoproliferation of stimulated PBMC; assay type: cell-based, dog; conditions: astaxanthin added directly to the media during stimulation
[4] = system: natural killer (NK) cells; experiment: NK cell cytotoxicity of cells from animals fed astaxanthin; assay type: in vivo, dog; conditions: animals fed a diet containing astaxanthin vs control animals
Method: (§6) To assess the effect of astaxanthin supplementation on immune function, dogs may be fed a diet containing astaxanthin and/or Vitamin E for 16 weeks. The amount of astaxanthin used may be 0, 1, 5, 10, 20, and 40 mg per animal per day. Various assays may be performed to assess immune function.
In another assay, natural killer (NK) cell cytotoxicity is assessed for NK cells isolated from animals that are fed a diet including astaxanthin supplementation.

[5] = Delayed-type hypersensitivity skin reactions; assay type: in vivo, dog; conditions: animals fed a diet containing astaxanthin vs control animals
Method: as §6
Delayed-type hypersensitivity may also be assessed in animals given a diet supplemented with astaxanthin. In these assays, control animals and animals fed a diet containing astaxanthin are given cutaneous injections of saline, a mitogen or a vaccine of distemper virus. The animals are then assessed to measure the skin reactions to mitogen, virus and control. In animals fed a diet containing astaxanthin, the skin reactions are more robust for virus and mitogen than that found in control animals.

[6] = Antibody titers against an antigen; assay type: in vivo, dog; conditions: animals fed a diet containing astaxanthin vs control animals
Method: as §6
Control animals and animals fed a diet containing astaxanthin may also be assessed for the robustness of the immune response against an antigen. For example, antibody titers against an antigen may be measured for control animals and animals fed a diet containing astaxanthin.

osteoarthritis = experiment: Osteoarthritis diet study: plasma and synovial fluid markers, gait; assay type: in vivo, dog
Excerpt: A diet supplemented with astaxanthin may be shown to reduce inflammation and associated pain in osteoarthritis. […] At 12 weeks of treatment, plasma and synovial fluid samples are taken from each animal and assayed for total antioxidant activity, and levels of malionaldehyde, prostaglandin, isoprostanes, MMPs and TIMPs. Additionally, the gait of the dogs may be assessed using standard force plate analyses.

[7] = cited from earlier work
[8] = reported; in words; cited from earlier work
[9] = in words; cited from earlier work
[10] = Pre-ex, sled dogs, about 2 mg astaxanthin/day or about 400 mg Vitamin E/day for six weeks

SMILES: CC1=C(/C=C/C(C)=C/C=C/C(C)=C/C=C/C=C(C)/C=C/C=C(C)/C=C/C2=C(C)C(=O)[C@@H](O)CC2(C)C)C(C)(C)C[C@H](O)C1=O [ATX, astaxanthin]
- Plasma Vitamin E concentration compared between treatment groups ([1]; dog, in vivo): no significant difference
- Plasma MDA (mean) (malondialdehyde; 24 hour post, same treatment): 0.95
- Plasma MDA compared between treatment groups (malondialdehyde; 24 hours post exercise, in words): lower than either the placebo value or the Vitamin E value
- Change in Plasma MDA from Baseline (malondialdehyde; Pre to 48 hour Post): −0.004
- Plasma F2 Isoprostane concentration (mean) (F2-isoprostane; 24 hour post, same treatment): 90
- Plasma F2 Isoprostane concentration (mean) (F2-isoprostane; 48 hour post, same treatment): 66
- Plasma F2 Isoprostane concentration (mean) (F2-isoprostane; Post-ex, same treatment): 52
- Plasma F2I compared to the placebo group (F2-isoprostane): lower F2I values immediately post-exercise and at 24 hours post-exercise
- Plasma total ORAC (mean) (total ORAC; 24 hour post, same treatment): 5700
- Plasma total ORAC (mean) (total ORAC; 48 hour post, same treatment): 4800
- ORAC improvement by supplementation (total ORAC): not improved
- Plasma CK compared to the Vitamin E group (Creatine Kinase; all time periods but 24 hours post-exercise, in words): lower CK values than the Vitamin E group
- free radical formation and lipid peroxidation products ([2]; canine lens epithelia stressed with UV light, astaxanthin at physiological levels): significantly reduce
- cell death ([2]; canine lens epithelial cells stressed with UV light): significantly less cell death
- cataract formation and severity (slit-lamp test) (cataract formation): control group has significantly more cataract formation
- proliferation of PBMC [3]: increases proliferation of cells significantly more
- NK cytotoxicity [4]: significantly increased
- skin reactions to virus and mitogen (delayed-type hypersensitivity) [5]: more robust
- antibody titers against an antigen [6]: higher antibody titers
- gait (force plate analyses) (osteoarthritis; 12 weeks, compared to controls): significant improvement in gait
- isoprostanes, total antioxidant activity and MMPs (osteoarthritis; plasma and synovial fluid, 12 weeks, 1, 5, 10, 20, or 40 mg per animal per day): decrease
- in vitro oxygen radical absorptive capacity relative to Vitamin E [7]: 4 times
- potency in preventing lipid peroxidation and scavenging free radicals [8]: more potent than Vitamin E or Vitamin C
- solubility (lipid / water compartments of the cell) [9]: soluble in both lipid and water compartments of the cell

SMILES: Cc1c(C)c2c(c(C)c1O)CC[C@@](C)(CCC[C@H](C)CCC[C@H](C)CCCC(C)C)O2 [Vitamin E, alpha-tocopherol]
- Plasma Vitamin E (mean) ([1]; 24 hour post, same treatment): 4720
- Plasma Vitamin E (mean) ([1]; 48 hour post, same treatment): 4520
- Plasma Vitamin E (mean) ([1]; Post-ex, same treatment): 3540
- Plasma Vitamin E (mean) [1, 10]: 3370
- Plasma Vitamin E concentration compared between treatment groups ([1]; all time periods, in words): greatest
- Plasma MDA (mean) (malondialdehyde; 24 hour post, same treatment): 1.44
- Plasma MDA (mean) (malondialdehyde; 48 hour post, same treatment): 1.44
- Plasma MDA (mean) (malondialdehyde; Post-ex, same treatment): 1.17
- Change in Plasma MDA from Baseline (malondialdehyde; Pre to 24 hour post): −0.071
- Change in Plasma MDA from Baseline (malondialdehyde; Pre to 48 hour Post): −0.069
- Change in Plasma MDA from Baseline (malondialdehyde; Pre to Post): −0.336*
- Plasma MDA (mean) (malondialdehyde; [10]): 1.51
- Plasma F2 Isoprostane concentration (mean) (F2-isoprostane; 24 hour post, same treatment): 130
- Plasma F2 Isoprostane concentration (mean) (F2-isoprostane; 48 hour post, same treatment): 78
- Plasma F2 Isoprostane concentration (mean) (F2-isoprostane; Post-ex, same treatment): 223
- Plasma F2 Isoprostane concentration (mean) (F2-isoprostane; [10]): 144
- Plasma F2I compared to the placebo group (F2-isoprostane): not different from the placebo value except at the 24 hour post-exercise time period where it was lower
- Plasma total ORAC (mean) (total ORAC; 24 hour post, same treatment): 7590
- Plasma total ORAC (mean) (total ORAC; 48 hour post, same treatment): 4840
- Plasma total ORAC (mean) (total ORAC; Post-ex, same treatment): 5850
- Plasma total ORAC (mean) (total ORAC; [10]): 7480
- ORAC improvement by supplementation (total ORAC): not improved
- Plasma Creatine Kinase (mean) (Creatine Kinase; 24 hour post, same treatment): 184
- Plasma Creatine Kinase (mean) (Creatine Kinase; 48 hour post, same treatment): 204
- Plasma Creatine Kinase (mean) (Creatine Kinase; Post-ex, same treatment): 208
- Plasma Creatine Kinase (mean) (Creatine Kinase; [10]): 139
- solubility (lipid / water compartments of the cell) [9]: lipid soluble only

Reference: US8034373B2, “Methods and compositions for reducing oxidative stress in an animal” (Nestec S. A., priority 2004, dated 2011)
